pIC50: −log10 of the molar value.
target: Human CD38 (Homo sapiens (Human), UniProt P28907); assay: CD38 enzyme assay; assay type: biochemical; settings: 2 nM CD38, NAD+ substrate, absorbance at 405 nm
How it was run: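 IC50 values come from fitting % inhibition against compound concentration with a 4-parameter logistic, or a 3-parameter fit with top/bottom fixed at 100/0 or Hill at 1. Inhibition is scaled between DMSO wells and positive-control wells treated with a quinolinone CD38 inhibitor.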

Human CD38, sequence (P28907 whole entry): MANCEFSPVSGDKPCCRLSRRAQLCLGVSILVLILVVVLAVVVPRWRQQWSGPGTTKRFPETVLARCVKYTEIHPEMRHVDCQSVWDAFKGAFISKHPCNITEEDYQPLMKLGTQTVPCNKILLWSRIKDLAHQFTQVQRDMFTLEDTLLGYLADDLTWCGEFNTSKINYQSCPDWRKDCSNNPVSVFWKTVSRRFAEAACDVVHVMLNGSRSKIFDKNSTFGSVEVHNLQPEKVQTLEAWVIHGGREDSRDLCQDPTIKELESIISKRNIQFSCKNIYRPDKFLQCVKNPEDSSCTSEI

| SMILES | pIC50 |
| --- | --- |
| O=C(Nc1ccc(Cl)cc1)c1nc(-n2ccnc2)nc2cc[nH]c12 [Example 87, N-(4-Chlorophenyl)-2-(1H-imidazol-1-yl)-5H-pyrrolo[3,2-d]pyrimidine-4-carboxamide] | > 8.00 |
| COCCO[C@H]1CC[C@H](NC(=O)c2nc(-n3ccnc3)cc3cn(C)nc23)CC1 [Example 196, 5-(1H-imidazol-1-yl)-N-((1r,4r)-4-(2-methoxyethoxy)cyclohexyl)-2-methyl-2H-pyrazolo[3,4-c]pyridine-7-carboxamide] | 7.00 to 8.00 |
| CO[C@H]1CC[C@H](NC(=O)c2nc(-n3ccnc3)nc3cc[nH]c23)CC1 [Example 58, 2-(1H-Imidazol-1-yl)-N-((1r,4r)-4-methoxycyclohexyl)-5H-pyrrolo[3,2-d]pyrimidine-4-carboxamide] | > 8.00 |
| COCCO[C@H]1CC[C@H](NC(=O)c2cc(-n3ccnc3)cc3nc(C)[nH]c23)CC1 [Example 30, 5-(1H-imidazol-1-yl)-N-((1r,4r)-4-(2-methoxyethoxy)cyclohexyl)-2-methyl-1H-benzo[d]imidazole-7-carboxamide] | 6.00 to 7.00 |
| O=C(N[C@@H]1CCCOC1)c1nc(-n2ccnc2)nc2cc[nH]c12 (single isomer, unassigned) [Example 28b] | > 8.00 |
| CC1(C#N)CN([C@H]2CC[C@@H](NC(=O)c3nc(-n4ccnc4)cc4cn[nH]c34)CC2)C1 [Example 259, N-((1s,4s)-4-(3-cyano-3-methylazetidin-1-yl)cyclohexyl)-5-(1H-imidazol-1-yl)-1H-pyrazolo[3,4-c]pyridine-7-carboxamide] | 6.00 to 7.00 |
| CC(C)NC(=O)c1nc(-n2ccnc2)nc2cc[nH]c12 [Example 93, 2-(1H-Imidazol-1-yl)-N-isopropyl-5H-pyrrolo[3,2-d]pyrimidine-4-carboxamide] | 7.00 to 8.00 |
| COCCOc1cccc(NC(=O)c2nc(-n3ccnc3)nc3cc[nH]c23)c1 [Example 100, 2-(1H-Imidazol-1-yl)-N-(3-(2-methoxyethoxy)phenyl)-5H-pyrrolo[3,2-d]pyrimidine-4-carboxamide] | > 8.00 |
| Cn1ccc(NC(=O)c2nc(-n3ccnc3)nc3cc[nH]c23)n1 [Example 94, 2-(1H-Imidazol-1-yl)-N-(1-methyl-1H-pyrazol-3-yl)-5H-pyrrolo[3,2-d]pyrimidine-4-carboxamide] | > 8.00 |
| O=C(N[C@H]1CC[C@H](OCCN2CCOCC2)CC1)c1nc(-n2ccnc2)nc2cc[nH]c12 [Example 97, 2-(1H-Imidazol-1-yl)-N-((1r,4r)-4-(2-morpholinoethoxy)cyclohexyl)-5H-pyrrolo[3,2-d]pyrimidine-4-carboxamide] | 7.00 to 8.00 |
| COCCO[C@H]1CC[C@H](NC(=O)c2nc(-n3ccnc3C)nc3cc[nH]c23)CC1 [Example 34, N-((1r,4r)-4-(2-Methoxyethoxy)cyclohexyl)-2-(2-methyl-1H-imidazol-1-yl)-5H-pyrrolo[3,2-d]pyrimidine-4-carboxamide] | < 6.00 |
| O=C(NCc1c(F)cccc1C(F)(F)F)c1cc(-c2cncs2)cc2cc[nH]c12 [Example 31, N-(2-Fluoro-6-(trifluoromethyl)benzyl)-5-(thiazol-5-yl)-1H-indole-7-carboxamide] | 7.00 to 8.00 |
| COCCOc1ccc(NC(=O)c2nc(-n3ccnc3)nc3cc[nH]c23)cc1 [Example 63, 2-(1H-Imidazol-1-yl)-N-(4-(2-methoxyethoxy)phenyl)-5H-pyrrolo[3,2-d]pyrimidine-4-carboxamide] | > 8.00 |
| CNC(=O)CO[C@H]1CC[C@H](NC(=O)c2nc(-n3ccnc3)nc3cc[nH]c23)CC1 [Example 80, 2-(1H-Imidazol-1-yl)-N-((1r,4r)-4-(2-(methylamino)-2-oxoethoxy)cyclohexyl)-5H-pyrrolo[3,2-d]pyrimidine-4-carboxamide] | 7.00 to 8.00 |
| O=C(NCc1c(F)cccc1C(F)(F)F)c1nc(-n2ccnc2)nc2nc[nH]c12 [Example 46, N-(2-Fluoro-6-(trifluoromethyl)benzyl)-2-(1H-imidazol-1-yl)-7H-purine-6-carboxamide] | 7.00 to 8.00 |
| COCCO[C@H]1CC[C@H](NC(=O)c2cc(-c3cncs3)nc3cn[nH]c23)CC1 [Example 17, N-((1r,4r)-4-(2-Methoxyethoxy)cyclohexyl)-5-(thiazol-5-yl)-1H-pyrazolo[4,3-b]pyridine-7-carboxamide] | 6.00 to 7.00 |

Results, then the compound that gave them:

| pIC50 | SMILES |
| --- | --- |
| 7.00 to 8.00 | C[C@H](O)[C@H]1CC[C@H](NC(=O)c2nc(-n3ccnc3)nc3ccsc23)CC1 (single isomer, unassigned) [Example 267b] |
| > 8.00 | Cc1cc2nc(-n3ccnc3)nc(C(=O)N[C@H]3CC[C@H](C(C)(C)O)CC3)c2[nH]1 [Example 184] |
| > 8.00 | N#Cc1ccc(NC(=O)c2nc(-n3ccnc3)cc3cn[nH]c23)cc1 [Example 205, N-(4-cyanophenyl)-5-(1H-imidazol-1-yl)-1H-pyrazolo[3,4-c]pyridine-7-carboxamide] |
| > 8.00 | O=C(N[C@H]1CC[C@H](O)CC1)c1nc(-n2ccnc2)nc2cc[nH]c12 [Example 177] |
| 7.00 to 8.00 | CC(C)(N[C@H]1CC[C@H](NC(=O)c2nc(-n3ccnc3)nc3cc[nH]c23)CC1)C(F)(F)F [Example 272, 2-(1H-imidazol-1-yl)-N-((1r,4r)-4-((1,1,1-trifluoro-2-methylpropan-2-yl)amino)cyclohexyl)-5H-pyrrolo[3,2-d]pyrimidine-4-carboxamide] |
| > 8.00 | CC(C)(O)[C@H]1CC[C@H](NC(=O)c2nc(-n3ccnc3)nc3ccsc23)CC1 [Example 210, N-((1r,4r)-4-(2-hydroxypropan-2-yl)cyclohexyl)-2-(1H-imidazol-1-yl)thieno[3,2-d]pyrimidine-4-carboxamide] |
| > 8.00 | O=C(Nc1cncnc1)c1nc(-n2ccnc2)nc2cc[nH]c12 [Example 153] |
| 7.00 to 8.00 | CC(F)(F)CN[C@H]1CC[C@H](NC(=O)c2nc(-n3ccnc3)nc3cc[nH]c23)CC1 [Example 235, N-((1r,4r)-4-((2,2-difluoropropyl)amino)cyclohexyl)-2-(1H-imidazol-1-yl)-5H-pyrrolo[3,2-d]pyrimidine-4-carboxamide] |
| 7.00 to 8.00 | O=C(N[C@H]1CC[C@H](C(F)(F)F)CC1)c1nc(-n2ccnc2)nc2cn[nH]c12 [Example 160] |
| 7.00 to 8.00 | CC(C)[C@@](C)(O)CO[C@H]1CC[C@H](NC(=O)c2nc(-n3ccnc3)nc3cc[nH]c23)CC1 (single isomer, unassigned) [Example 126a] |
| 6.00 to 7.00 | O=C(N[C@H]1CC[C@@H](NCCC(F)F)CC1)c1nc(-n2ccnc2)nc2cc[nH]c12 [Example 181] |
| 7.00 to 8.00 | O=C(N[C@H]1CC[C@H](NCC(F)(F)F)CC1)c1nc(-n2ccnc2)cc2ccsc12 [Example 270, 5-(1H-imidazol-1-yl)-N-((1r,4r)-4-((2,2,2-trifluoroethyl)amino)cyclohexyl)thieno[2,3-c]pyridine-7-carboxamide] |
| 7.00 to 8.00 | CC(F)(F)CN[C@H]1CC[C@H](NC(=O)c2nc(-n3ccnc3)nc3ccsc23)CC1 [Example 246, N-((1r,4r)-4-((2,2-difluoropropyl)amino)cyclohexyl)-2-(1H-imidazol-1-yl)thieno[3,2-d]pyrimidine-4-carboxamide] |
| 7.00 to 8.00 | COCCO[C@H]1CC[C@H](NC(=O)c2nc(-n3ccnc3)cc3ccsc23)CC1 [Example 198, 5-(1H-imidazol-1-yl)-N-((1r,4r)-4-(2-methoxyethoxy)cyclohexyl)thieno[2,3-c]pyridine-7-carboxamide] |
| 7.00 to 8.00 | O=C(N[C@H]1CC[C@H](NCC(F)(F)F)CC1)c1nc(-n2ccnc2)nc2ccsc12 [Example 220, 2-(1H-imidazol-1-yl)-N-((1r,4r)-4-(2,2,2-trifluoroethylamino)cyclohexyl)thieno[3,2-d]pyrimidine-4-carboxamide] |
| 7.00 to 8.00 | CN(CC(F)(F)F)[C@H]1CC[C@@H](NC(=O)c2nc(-n3ccnc3)nc3cc[nH]c23)CC1 [Example 113, 2-(1H-imidazol-1-yl)-N-((1s,4s)-4-(methyl(2,2,2-trifluoroethyl)amino)cyclohexyl)-5H-pyrrolo[3,2-d]pyrimidine-4-carboxamide] |
| > 8.00 | C[C@@H](O)[C@H]1CC[C@H](NC(=O)c2nc(-n3ccnc3)nc3ccsc23)CC1 (single isomer, unassigned) [Example 267a] |
| 7.00 to 8.00 | O=C(N[C@H]1CC[C@H](NCC(F)F)CC1)c1nc(-n2ccnc2)nc2cn[nH]c12 [Example 206, N-((1r,4r)-4-(2,2-difluoroethylamino)cyclohexyl)-5-(1H-imidazol-1-yl)-1H-pyrazolo[4,3-d]pyrimidine-7-carboxamide] |
| 7.00 to 8.00 | CC(F)(F)CN[C@H]1CC[C@H](NC(=O)c2nc(-n3ccnc3)nc3cn[nH]c23)CC1 [Example 244, N-((1r,4r)-4-((2,2-difluoropropyl)amino)cyclohexyl)-5-(1H-imidazol-1-yl)-1H-pyrazolo[4,3-d]pyrimidine-7-carboxamide] |
| 7.00 to 8.00 | CC(C)(N[C@H]1CC[C@H](NC(=O)c2nc(-n3ccnc3)nc3cn[nH]c23)CC1)C(F)(F)F [Example 276, 5-(1H-imidazol-1-yl)-N-((1r,4r)-4-((1,1,1-trifluoro-2-methylpropan-2-yl)amino)cyclohexyl)-1H-pyrazolo[4,3-d]pyrimidine-7-carboxamide] |
| > 8.00 | O=C(Nc1ccc(N2CCNCC2)nc1)c1nc(-n2ccnc2)cc2cn[nH]c12 [Example 224, 5-(1H-imidazol-1-yl)-N-(6-(piperazin-1-yl)pyridin-3-yl)-1H-pyrazolo[3,4-c]pyridine-7-carboxamide] |
| 7.00 to 8.00 | O=C(N[C@H]1CC[C@H](NC2COC2)CC1)c1nc(-n2ccnc2)nc2cc[nH]c12 [Example 216, 2-(1H-imidazol-1-yl)-N-((1r,4r)-4-(oxetan-3-ylamino)cyclohexyl)-5H-pyrrolo[3,2-d]pyrimidine-4-carboxamide] |
| 7.00 to 8.00 | O=C(N[C@H]1CC[C@H](OCC(F)(F)F)CC1)c1nc(-n2ccnc2)cc2cn[nH]c12 [Example 252, 5-(1H-imidazol-1-yl)-N-((1r,4r)-4-(2,2,2-trifluoroethoxy)cyclohexyl)-1H-pyrazolo[3,4-c]pyridine-7-carboxamide] |

From patent publication US11535621B2, “Heterobicyclic amides as inhibitors of CD38” (Ribon Therapeutics, Inc., priority 2019, dated 2022)
